Laboratory results: ChEMBL document CHEMBL1138371, “Discovery of low nanomolar non-hydroxamate inhibitors of tumor necrosis factor-alpha converting enzyme (TACE)” (Bioorg Med Chem Lett, 2007)

Experiments:
[1] = tested on: Blood; assay: Inhibition of LPS-stimulated TNFalpha production in human whole blood; format: functional, tissue-based
[2] = target: 72 kDa type IV collagenase (Homo sapiens, UniProt P08253); assay: Inhibition of MMP2
[3] = target: Macrophage metalloelastase (Homo sapiens, UniProt P39900); assay: Inhibition of MMP12
[4] = target: T1, Matrilysin (Homo sapiens, UniProt P09237); assay: Inhibition of MMP7
T1 sequence (P09237 whole entry): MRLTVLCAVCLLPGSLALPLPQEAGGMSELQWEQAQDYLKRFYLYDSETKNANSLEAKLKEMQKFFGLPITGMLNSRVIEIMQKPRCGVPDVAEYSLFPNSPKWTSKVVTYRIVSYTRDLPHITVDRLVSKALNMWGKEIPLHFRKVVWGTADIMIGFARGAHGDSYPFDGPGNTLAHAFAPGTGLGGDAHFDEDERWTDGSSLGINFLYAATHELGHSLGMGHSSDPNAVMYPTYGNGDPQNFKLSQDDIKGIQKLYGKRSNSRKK

[5] = target: Stromelysin-1 (Homo sapiens, UniProt P08254); assay: Inhibition of MMP3
[6] = species: Homo sapiens; assay: Inhibition of aggrecanase at 1 uM
[7] = target: Disintegrin and metalloproteinase domain-containing protein 17 (Sus scrofa, UniProt O77636); assay: Inhibition of porcine TACE
[8] = target: Collagenase 3 (Homo sapiens, UniProt P45452); assay: Inhibition of MMP13

72 kDa type IV collagenase, sequence (P08253 whole entry): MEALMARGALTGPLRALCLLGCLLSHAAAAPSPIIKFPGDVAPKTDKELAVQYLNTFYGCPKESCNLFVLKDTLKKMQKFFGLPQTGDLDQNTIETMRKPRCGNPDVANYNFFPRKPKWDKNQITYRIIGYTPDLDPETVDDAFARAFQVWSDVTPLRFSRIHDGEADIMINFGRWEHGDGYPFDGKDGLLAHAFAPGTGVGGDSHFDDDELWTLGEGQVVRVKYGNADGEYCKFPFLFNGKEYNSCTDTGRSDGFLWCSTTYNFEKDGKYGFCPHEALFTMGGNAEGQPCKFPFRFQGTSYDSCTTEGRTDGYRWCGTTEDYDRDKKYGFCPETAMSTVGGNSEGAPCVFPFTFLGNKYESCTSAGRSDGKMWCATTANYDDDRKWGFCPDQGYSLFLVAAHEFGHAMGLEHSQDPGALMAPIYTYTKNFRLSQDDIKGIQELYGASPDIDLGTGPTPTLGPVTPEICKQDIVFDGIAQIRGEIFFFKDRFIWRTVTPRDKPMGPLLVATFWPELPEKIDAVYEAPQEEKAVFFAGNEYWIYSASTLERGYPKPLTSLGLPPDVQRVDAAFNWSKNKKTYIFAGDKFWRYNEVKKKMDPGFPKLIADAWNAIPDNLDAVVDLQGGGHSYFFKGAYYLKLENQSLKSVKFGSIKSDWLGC
Macrophage metalloelastase, sequence (P39900 whole entry): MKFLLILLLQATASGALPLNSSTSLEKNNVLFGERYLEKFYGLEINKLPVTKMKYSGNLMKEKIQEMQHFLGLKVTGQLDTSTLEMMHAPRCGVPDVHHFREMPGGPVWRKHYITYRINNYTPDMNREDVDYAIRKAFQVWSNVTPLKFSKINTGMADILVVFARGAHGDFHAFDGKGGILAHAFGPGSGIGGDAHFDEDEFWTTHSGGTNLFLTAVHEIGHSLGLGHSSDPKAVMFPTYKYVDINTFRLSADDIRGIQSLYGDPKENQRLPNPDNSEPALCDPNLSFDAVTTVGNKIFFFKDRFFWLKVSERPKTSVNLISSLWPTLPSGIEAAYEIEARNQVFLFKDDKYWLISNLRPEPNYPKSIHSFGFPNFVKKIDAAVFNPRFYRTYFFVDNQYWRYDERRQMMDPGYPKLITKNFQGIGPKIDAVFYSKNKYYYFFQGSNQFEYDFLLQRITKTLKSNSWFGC
Disintegrin and metalloproteinase domain-containing protein 17, sequence (O77636 whole entry, the tested form may be a part): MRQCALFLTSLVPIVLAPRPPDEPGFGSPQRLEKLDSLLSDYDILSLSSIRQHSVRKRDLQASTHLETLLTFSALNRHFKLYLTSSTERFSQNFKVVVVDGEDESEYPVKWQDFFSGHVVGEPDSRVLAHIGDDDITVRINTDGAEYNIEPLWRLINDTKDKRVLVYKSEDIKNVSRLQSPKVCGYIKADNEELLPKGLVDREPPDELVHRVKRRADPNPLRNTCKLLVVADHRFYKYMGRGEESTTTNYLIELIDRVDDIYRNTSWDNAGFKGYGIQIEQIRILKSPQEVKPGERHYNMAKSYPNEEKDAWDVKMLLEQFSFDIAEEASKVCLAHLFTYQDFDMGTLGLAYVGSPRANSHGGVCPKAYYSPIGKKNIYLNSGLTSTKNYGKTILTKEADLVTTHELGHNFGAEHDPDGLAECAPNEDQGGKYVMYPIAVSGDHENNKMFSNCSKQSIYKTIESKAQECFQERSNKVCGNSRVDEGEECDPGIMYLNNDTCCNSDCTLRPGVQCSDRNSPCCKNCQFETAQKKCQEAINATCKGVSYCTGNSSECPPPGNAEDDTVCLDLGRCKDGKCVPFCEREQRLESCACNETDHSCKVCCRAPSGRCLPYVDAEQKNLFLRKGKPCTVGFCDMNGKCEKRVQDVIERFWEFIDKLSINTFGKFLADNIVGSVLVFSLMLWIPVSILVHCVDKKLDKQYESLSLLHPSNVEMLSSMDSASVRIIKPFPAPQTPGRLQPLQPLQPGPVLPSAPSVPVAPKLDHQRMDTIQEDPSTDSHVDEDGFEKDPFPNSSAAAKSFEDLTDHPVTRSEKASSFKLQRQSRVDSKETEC
Stromelysin-1, sequence (P08254 whole entry): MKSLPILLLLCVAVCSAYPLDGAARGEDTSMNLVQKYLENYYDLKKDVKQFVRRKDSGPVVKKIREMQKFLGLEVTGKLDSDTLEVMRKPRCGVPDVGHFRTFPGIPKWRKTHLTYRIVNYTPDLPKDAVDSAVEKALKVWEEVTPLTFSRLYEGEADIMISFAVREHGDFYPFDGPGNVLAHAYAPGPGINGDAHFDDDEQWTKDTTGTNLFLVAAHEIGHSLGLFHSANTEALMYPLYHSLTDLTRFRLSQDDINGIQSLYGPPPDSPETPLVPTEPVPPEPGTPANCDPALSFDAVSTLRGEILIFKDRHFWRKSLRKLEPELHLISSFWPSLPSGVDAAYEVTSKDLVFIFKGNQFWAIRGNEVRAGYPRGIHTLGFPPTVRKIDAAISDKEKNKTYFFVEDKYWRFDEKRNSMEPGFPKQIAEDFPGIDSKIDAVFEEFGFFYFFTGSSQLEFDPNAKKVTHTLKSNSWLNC

Cc1cc(COc2ccc(C(=O)NCC3(N4CCN(Cc5ccccc5)CC4)C(=O)NC(=O)NC3=O)cc2)c2ccccc2n1
IC50 [1]: > 50 µM | Ki [2]: 2.7 µM | Ki [3]: 4.1 µM | Ki [4]: > 6.37 µM | Ki [5]: > 4.5 µM | inhibition [6]: 22% | IC50 [7]: 0.014 µM

Cc1cc(COc2ccc(C(=O)NCC3(C4CCN(C(=O)C(C)(C)C)CC4)C(=O)NC(=O)NC3=O)cc2)c2ccccc2n1
IC50 [1]: 39 µM | Ki [2]: > 3.33 µM | Ki [3]: > 6.02 µM | Ki [4]: > 6.37 µM | Ki [5]: > 4.5 µM | inhibition [6]: 10% | IC50 [7]: 0.013 µM

Cc1cc(COc2ccc(C(=O)NC3CCCC34C(=O)NC(=O)NC4=O)cc2)c2ccccc2n1 (stereo not drawn)
IC50 [1]: > 50 µM | Ki [2]: > 3.33 µM | inhibition [6]: 0% | IC50 [7]: 0.024 µM

Cc1cc(COc2ccc(C(=O)NC3COCC34C(=O)NC(=O)NC4=O)cc2)c2ccccc2n1 (stereo not drawn)
IC50 [1]: 50 µM | Ki [2]: > 3.33 µM | Ki [3]: > 4.04 µM | Ki [4]: > 6.37 µM | Ki [5]: > 4.5 µM | Ki [8]: 3.53 µM | inhibition [6]: 12% | IC50 [7]: 0.044 µM

Cc1cc(COc2ccc(CC(=O)NCC3(C)C(=O)NC(=O)NC3=O)cc2)c2ccccc2n1
IC50 [7]: > 100 µM

Cc1cc(COc2ccc(C(=O)NCC3(C4CCN(S(C)(=O)=O)CC4)C(=O)NC(=O)NC3=O)cc2)c2ccccc2n1
IC50 [1]: > 50 µM | Ki [2]: > 3.33 µM | Ki [3]: > 6.02 µM | Ki [4]: > 6.37 µM | Ki [5]: > 4.5 µM | inhibition [6]: 36% | IC50 [7]: 0.029 µM

Cc1cc(COc2ccc(C(=O)NCC3(NC(=O)OC(C)(C)C)C(=O)NC(=O)NC3=O)cc2)c2ccccc2n1
IC50 [1]: > 50 µM | Ki [2]: > 3.33 µM | Ki [3]: > 6.02 µM | Ki [4]: > 6.37 µM | Ki [5]: > 4.5 µM | inhibition [6]: 16% | IC50 [7]: 0.013 µM

Cc1cc(COc2ccc(C(=O)NC3CN(C(=O)c4cccnc4)CC34C(=O)NC(=O)NC4=O)cc2)c2ccccc2n1 (stereo not drawn)
IC50 [1]: 18.4 µM | Ki [2]: > 3.33 µM | Ki [3]: 0.13 µM | Ki [4]: > 6.37 µM | Ki [5]: > 4.5 µM | Ki [8]: 1.31 µM | inhibition [6]: 17% | IC50 [7]: 0.029 µM

Cc1cc(COc2ccc(C(=O)NC3(C)C(=O)NC(=O)NC3=O)cc2)c2ccccc2n1
IC50 [7]: > 100 µM

Cc1cc(COc2ccc(C(=O)NCC3(C4CCN(C(C)C)CC4)C(=O)NC(=O)NC3=O)cc2)c2ccccc2n1
IC50 [1]: > 50 µM | Ki [2]: > 3.33 µM | Ki [3]: > 6.02 µM | Ki [4]: > 6.37 µM | Ki [5]: > 4.5 µM | inhibition [6]: 21% | IC50 [7]: 0.052 µM

Cc1cc(COc2ccc(C(=O)NCC3(N4CCN(C(=O)C(C)(C)C)CC4)C(=O)NC(=O)NC3=O)cc2)c2ccccc2n1
IC50 [1]: 38 µM | Ki [2]: 0.02 µM | Ki [3]: 0.05 µM | Ki [4]: > 6.37 µM | Ki [5]: > 4.5 µM | inhibition [6]: 7% | IC50 [7]: 0.029 µM

Cc1cc(COc2ccc(C(=O)NC3CN(S(C)(=O)=O)CC34C(=O)NC(=O)NC4=O)cc2)c2ccccc2n1 (stereo not drawn)
IC50 [1]: 12.6 µM | Ki [2]: > 3.33 µM | Ki [3]: 1.29 µM | Ki [4]: > 6.37 µM | Ki [5]: > 4.5 µM | Ki [8]: 3.72 µM | inhibition [6]: 26% | IC50 [7]: 0.036 µM

Cc1cc(COc2ccc(C(=O)CCC3(C)C(=O)NC(=O)NC3=O)cc2)c2ccccc2n1
IC50 [7]: 0.8 µM

Cc1cc(COc2ccc(C(=O)NCC3(Cc4ccccc4)C(=O)NC(=O)NC3=O)cc2)c2ccccc2n1
IC50 [1]: > 50 µM | Ki [2]: 0.37 µM | Ki [3]: 0.39 µM | Ki [4]: > 6.37 µM | Ki [5]: 3.69 µM | inhibition [6]: 34% | IC50 [7]: 0.018 µM

Cc1cc(COc2ccc(C(=O)NC3CN(C(=O)C(C)(C)C)CC34C(=O)NC(=O)NC4=O)cc2)c2ccccc2n1 (stereo not drawn)
IC50 [1]: > 50 µM | Ki [2]: > 3.33 µM | Ki [3]: > 6.02 µM | Ki [4]: > 6.37 µM | Ki [5]: > 4.5 µM | inhibition [6]: 53% | IC50 [7]: 0.111 µM

CC(=O)N1CC(NC(=O)c2ccc(OCc3cc(C)nc4ccccc34)cc2)C2(C1)C(=O)NC(=O)NC2=O (stereo not drawn)
IC50 [1]: 14 µM | Ki [2]: > 3.33 µM | Ki [3]: 0.58 µM | Ki [4]: > 6.37 µM | Ki [5]: > 4.5 µM | Ki [8]: 3.95 µM | inhibition [6]: 44% | IC50 [7]: 0.055 µM

Cc1cc(COc2ccc(C(=O)NC(c3ccncc3)C3(C)C(=O)NC(=O)NC3=O)cc2)c2ccccc2n1 (stereo not drawn)
IC50 [7]: 2.36 µM

Cc1cc(COc2ccc(C(=O)NCC3(C4CCN(C5CCOCC5)CC4)C(=O)NC(=O)NC3=O)cc2)c2ccccc2n1
IC50 [1]: > 50 µM | Ki [2]: > 3.33 µM | Ki [3]: > 6.02 µM | Ki [4]: > 6.37 µM | Ki [5]: > 4.5 µM | inhibition [6]: 5% | IC50 [7]: 0.031 µM

Cc1cc(COc2ccc(C3(C)C(=O)NC(=O)NC3=O)cc2)c2ccccc2n1
IC50 [7]: 1.03 µM

Cc1cc(COc2ccc(CCC3(C)C(=O)NC(=O)NC3=O)cc2)c2ccccc2n1
IC50 [7]: 49 µM

CCC1(CNC(=O)c2ccc(OCc3cc(C)nc4ccccc34)cc2)C(=O)NC(=O)NC1=O
IC50 [1]: > 50 µM | Ki [2]: 0.2 µM | Ki [3]: 0.21 µM | Ki [4]: > 6.37 µM | Ki [5]: > 4.5 µM | inhibition [6]: 18% | IC50 [7]: 0.016 µM

Cc1cc(COc2ccc(CC3(C)C(=O)NC(=O)NC3=O)cc2)c2ccccc2n1
IC50 [7]: 2.2 µM

Cc1cc(COc2ccc(C(=O)NCC3(C4CCNCC4)C(=O)NC(=O)NC3=O)cc2)c2ccccc2n1
IC50 [1]: 48.7 µM | Ki [2]: > 3.33 µM | Ki [3]: > 6.02 µM | Ki [4]: > 6.37 µM | Ki [5]: > 4.5 µM | inhibition [6]: 1% | IC50 [7]: 0.055 µM

Cc1cc(COc2ccc(C(=O)NCC3(N4CCN(S(C)(=O)=O)CC4)C(=O)NC(=O)NC3=O)cc2)c2ccccc2n1
IC50 [1]: > 50 µM | Ki [2]: 2.17 µM | Ki [3]: 1.02 µM | Ki [4]: > 6.37 µM | Ki [5]: > 4.5 µM | inhibition [6]: 11% | IC50 [7]: 0.002 µM

CC(=O)N1CCN(C2(CNC(=O)c3ccc(OCc4cc(C)nc5ccccc45)cc3)C(=O)NC(=O)NC2=O)CC1
IC50 [1]: > 50 µM | Ki [2]: > 3.33 µM | Ki [3]: > 6.02 µM | Ki [4]: > 6.37 µM | Ki [5]: > 4.5 µM | inhibition [6]: 21% | IC50 [7]: 0.005 µM

Cc1cc(COc2ccc(C(=O)NC3CN(C(=O)OC(C)(C)C)CC34C(=O)NC(=O)NC4=O)cc2)c2ccccc2n1 (stereo not drawn)
IC50 [1]: 14 µM | Ki [2]: > 3.33 µM | Ki [3]: 1.03 µM | Ki [4]: > 6.37 µM | Ki [5]: > 4.5 µM | Ki [8]: > 5.21 µM | inhibition [6]: 44% | IC50 [7]: 0.128 µM

Cc1cc(COc2ccc(/C=C/CC3(C)C(=O)NC(=O)NC3=O)cc2)c2ccccc2n1
IC50 [7]: 11 µM

Cc1cc(COc2ccc(C(=O)NCC3(N4CCN(C(=O)c5cccnc5)CC4)C(=O)NC(=O)NC3=O)cc2)c2ccccc2n1
IC50 [1]: 43 µM | Ki [2]: > 3.33 µM | Ki [3]: 4.64 µM | Ki [4]: > 6.37 µM | Ki [5]: > 4.5 µM | inhibition [6]: 36% | IC50 [7]: 0.01 µM

C#CCN1CCN(C2(CNC(=O)c3ccc(OCc4cc(C)nc5ccccc45)cc3)C(=O)NC(=O)NC2=O)CC1
IC50 [1]: > 50 µM | Ki [2]: > 3.33 µM | Ki [3]: > 6.02 µM | Ki [4]: > 6.37 µM | Ki [5]: > 4.5 µM | inhibition [6]: 26% | IC50 [7]: 0.062 µM

Cc1cc(COc2ccc(C(=O)NCC3(N4CCN(C(C)C)CC4)C(=O)NC(=O)NC3=O)cc2)c2ccccc2n1
IC50 [1]: > 50 µM | Ki [2]: > 3.33 µM | Ki [3]: > 6.02 µM | Ki [4]: > 6.37 µM | Ki [5]: > 4.5 µM | inhibition [6]: 20% | IC50 [7]: 0.007 µM

Cc1cc(COc2ccc(C(=O)NC3CCCCC34C(=O)NC(=O)NC4=O)cc2)c2ccccc2n1 (stereo not drawn)
Ki [2]: 0.11 µM | inhibition [6]: 29% | IC50 [7]: 0.138 µM

Cc1cc(COc2ccc(OC3(C)C(=O)NC(=O)NC3=O)cc2)c2ccccc2n1
IC50 [7]: 1.3 µM

Cc1cc(COc2ccc(NC(=O)CC3(C)C(=O)NC(=O)NC3=O)cc2)c2ccccc2n1
IC50 [7]: 12 µM

Cc1cc(COc2ccc(C(=O)NCC3(N4CCN(C)CC4)C(=O)NC(=O)NC3=O)cc2)c2ccccc2n1
IC50 [1]: > 50 µM | Ki [2]: > 3.33 µM | Ki [3]: > 6.02 µM | Ki [4]: > 6.37 µM | Ki [5]: > 4.5 µM | inhibition [6]: 21% | IC50 [7]: 0.058 µM

Cc1cc(COc2ccc(C(=O)NCC3(C(C)C)C(=O)NC(=O)NC3=O)cc2)c2ccccc2n1
IC50 [1]: > 50 µM | Ki [2]: 0.93 µM | Ki [3]: > 6.02 µM | Ki [4]: > 6.37 µM | Ki [5]: > 4.5 µM | inhibition [6]: 11% | IC50 [7]: 0.019 µM

Cc1cc(COc2ccc(CCCC3(C)C(=O)NC(=O)NC3=O)cc2)c2ccccc2n1
IC50 [7]: > 100 µM

Cc1cc(COc2ccc(C(=O)NCC3(C4CCN(C)CC4)C(=O)NC(=O)NC3=O)cc2)c2ccccc2n1
IC50 [1]: > 50 µM | Ki [2]: > 3.33 µM | Ki [3]: > 6.02 µM | Ki [4]: > 6.37 µM | Ki [5]: > 4.5 µM | inhibition [6]: 15% | IC50 [7]: 0.057 µM

Cc1cc(COc2ccc(C(=O)NCC3(C4CCN(C(=O)OC(C)(C)C)CC4)C(=O)NC(=O)NC3=O)cc2)c2ccccc2n1
IC50 [1]: 35 µM | Ki [2]: > 3.33 µM | Ki [3]: > 6.02 µM | Ki [4]: > 6.37 µM | Ki [5]: > 4.5 µM | inhibition [6]: 0% | IC50 [7]: 0.047 µM
